Two compounds from patent US12673050B2, “Compositions and their use for the treatment of A1-antitrypsin deficiency” (Centessa Pharmaceuticals (UK) Limited, priority 2021, dated 2026) can be followed below.

Series [1] is described as follows: Mouse hepatocyte stability. In kind it is in vitro ADME. The note with it: male, C57BL6, cryopreserved hepatocytes in suspension, 37° C.; for hepatocyte CLint: read-out: intrinsic clearance (CLint) in mouse hepatocytes. The method, then: (§1) The intrinsic clearance (CLint) and half-life of (S)-1-((2-(trifluoromethyl)phenyl)sulfonyl)piperidine-3-carboxylic acid and (R)-1-((2-(trifluoromethyl)phenyl)sulfonyl)piperidine-3-carboxylic acid were measured in a hepatocyte suspension of cryopreserved male C57BL6 mouse hepatocytes or a mixed hepatocyte suspension of cryopreserved human hepatocytes. Briefly, the compounds were incubated with hepatocyte suspensions at 37° C. over a time course and the remaining compound at each time point was assessed by mass spectrometry (UPLC-MS/MS). CLint in mouse hepatocytes was <3 μl/min/10^6 cells and in human hepatocytes was <3 μl/min/10^6 cells for both compounds.

The nature of series [2]: Human hepatocyte stability. In kind it is in vitro ADME. The note with it: cryopreserved hepatocytes, mixed human hepatocyte suspension, 37° C.; for hepatocyte CLint: read-out: intrinsic clearance (CLint) in human hepatocytes. The procedure: as §1
Series [3] can be described thus: Plasma protein binding by rapid equilibrium dialysis, human plasma. It is filed as in vitro ADME. The note with it: 37° C. The procedure:
The extent to which (S)-1-((2-(trifluoromethyl)phenyl)sulfonyl)piperidine-3-carboxylic acid and (R)-1-((2-(trifluoromethyl)phenyl)sulfonyl)piperidine-3-carboxylic acid bound to plasma proteins such as albumin and alpha-1 acid glycoprotein within human or mouse blood was determined by rapid equilibrium dialysis. Compounds were incubated at 5 μM for 4 hours at 37° C. Plasma protein binding in mouse plasma was 78.1% and in human plasma was 91.5% for (S)-1-((2-(trifluoromethyl)phenyl)sulfonyl)piperidine-3-carboxylic acid. Plasma protein binding in mouse plasma was 83.8% and in human plasma was 90.5% for (R)-1-((2-(trifluoromethyl)phenyl)sulfonyl)piperidine-3-carboxylic acid.

Another series addresses T1, CYP 1A2 (Homo sapiens, UniProt P05177).
T1 construct: purchased CYPEX; host or cells: E. coli
T1 sequence (P05177 1-516): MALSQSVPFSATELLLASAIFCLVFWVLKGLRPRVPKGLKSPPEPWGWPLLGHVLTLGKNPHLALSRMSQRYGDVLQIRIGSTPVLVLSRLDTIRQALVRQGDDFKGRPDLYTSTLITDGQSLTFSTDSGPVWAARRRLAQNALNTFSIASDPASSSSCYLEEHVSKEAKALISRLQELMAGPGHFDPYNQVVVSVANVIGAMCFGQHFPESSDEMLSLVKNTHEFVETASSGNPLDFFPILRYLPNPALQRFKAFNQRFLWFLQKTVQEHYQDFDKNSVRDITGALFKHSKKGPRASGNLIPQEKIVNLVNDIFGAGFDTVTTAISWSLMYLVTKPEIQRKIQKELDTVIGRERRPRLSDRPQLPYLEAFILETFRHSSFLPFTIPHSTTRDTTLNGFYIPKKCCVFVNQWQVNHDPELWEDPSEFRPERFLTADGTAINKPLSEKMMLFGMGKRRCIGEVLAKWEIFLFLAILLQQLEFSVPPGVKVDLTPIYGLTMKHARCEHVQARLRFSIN
The series is described as follows: CYP inhibition, E. coli CYPEX membranes with probe substrates. In kind it is in vitro ADME. The method, then: (§2) Using E. coli CYPEX membranes in combination with specific probe substrates, the inhibition of individual CYPs by (S)-1-((2-(trifluoromethyl)phenyl)sulfonyl)piperidine-3-carboxylic acid and (R)-1-((2-(trifluoromethyl)phenyl)sulfonyl)piperidine-3-carboxylic acid was assessed (see Weaver et al., 2003, Drug Metab Dispos 31:7, 955-966).

For the next series, the target named is T2, CYP 2C19 (Homo sapiens, UniProt P33261).
T2 construct: purchased CYPEX; host or cells: E. coli
Described as above. In kind it is in vitro ADME. The method, then:
as §2

The target of the next series is T3, CYP 2C9 (Homo sapiens, UniProt P11712).
T3 construct: purchased CYPEX; host or cells: E. coli
The series is described as above. In kind it is in vitro ADME. The procedure:
as §2

A further series concerns the target T4, CYP 2D6 (Homo sapiens, UniProt P10635).
T4 construct: purchased CYPEX; host or cells: E. coli
The series is described as above. In kind it is in vitro ADME. The procedure:
as §2

The next series has as its target T5, CYP 3A4 (Homo sapiens, UniProt P08684).
T5 construct: purchased CYPEX; host or cells: E. coli
The series is described as above. It is filed as in vitro ADME. The method, then: as §2

A further series deals with human Z A1AT (Homo sapiens, UniProt P01009, E366K). The series is described as follows: A1AT cell secretion assay using HEK-Z cells (ELISA). In kind it is cell-based. Set-up: expressed in transfected cells; host or cells: HEK-Z cells (HEK-EBNA with Z A1AT plasmid). The following applies: HEK-Z cells, 10, 33, 100 and 333 nM, 48 h. The procedure:
HEK-Z cells, a human embryonic kidney cell line stably transfected with the human Z A1AT gene, were plated into 96 well plates (3.0×10^5 cells/ml with 200 μl of media/well) overnight at 37° C. in a humidified atmosphere containing 5% CO2. Following incubation cells were washed with 200 μl serum-free media three times and media was replaced with treatments in quadruplicate using serum-free media containing vehicle, 10 μM suberanilohydroxamic acid (SAHA), (S)-1-((2-(trifluoromethyl)phenyl)sulfonyl)piperidine-3-carboxylic acid or (R)-1-((2-(trifluoromethyl)phenyl)sulfonyl)piperidine-3-carboxylic acid (at concentrations of 10, 33, 100 and 333 nM) for 48 h in a 37° C. incubator in a final volume of 200 μl. […]
Briefly, a 96 well plate was coated with human A1AT capture antibody overnight at room temperature (1:180 dilution from stock, 100 μl final volume/well). […] After which, 50 μl stop solution (2M H2SO4) was added and optical density (OD) of each well was read at 450 nm with 570 nm blank subtracted from each well using a microplate reader. A 4 parameter logistic curve was constructed using GraphPad Prism 7 and A1AT concentrations were determined in each sample by interpolation from a standard curve and multiplying by the appropriate dilution factor.
The amount of human A1AT secreted from transfected HEK-EBNA cells into the media was measured by ELISA. […]
On the technique in general: An ELISA detects its analyte on a solid surface through an enzyme-linked reagent.

Where only a bound is given, the exact number is not on record here.

Sequence of human Z A1AT (P01009 25-418 E366K): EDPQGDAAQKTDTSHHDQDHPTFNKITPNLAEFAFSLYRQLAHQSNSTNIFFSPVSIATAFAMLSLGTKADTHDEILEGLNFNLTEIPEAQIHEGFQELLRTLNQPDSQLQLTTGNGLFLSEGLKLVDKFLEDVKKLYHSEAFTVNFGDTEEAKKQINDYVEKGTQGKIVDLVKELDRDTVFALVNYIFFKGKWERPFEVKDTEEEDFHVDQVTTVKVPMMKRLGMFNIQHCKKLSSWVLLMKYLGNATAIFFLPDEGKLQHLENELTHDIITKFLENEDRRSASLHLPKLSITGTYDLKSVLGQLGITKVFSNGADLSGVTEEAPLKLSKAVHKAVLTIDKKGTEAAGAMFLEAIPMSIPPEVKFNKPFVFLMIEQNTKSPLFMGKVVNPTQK
T2 sequence (P33261 whole entry): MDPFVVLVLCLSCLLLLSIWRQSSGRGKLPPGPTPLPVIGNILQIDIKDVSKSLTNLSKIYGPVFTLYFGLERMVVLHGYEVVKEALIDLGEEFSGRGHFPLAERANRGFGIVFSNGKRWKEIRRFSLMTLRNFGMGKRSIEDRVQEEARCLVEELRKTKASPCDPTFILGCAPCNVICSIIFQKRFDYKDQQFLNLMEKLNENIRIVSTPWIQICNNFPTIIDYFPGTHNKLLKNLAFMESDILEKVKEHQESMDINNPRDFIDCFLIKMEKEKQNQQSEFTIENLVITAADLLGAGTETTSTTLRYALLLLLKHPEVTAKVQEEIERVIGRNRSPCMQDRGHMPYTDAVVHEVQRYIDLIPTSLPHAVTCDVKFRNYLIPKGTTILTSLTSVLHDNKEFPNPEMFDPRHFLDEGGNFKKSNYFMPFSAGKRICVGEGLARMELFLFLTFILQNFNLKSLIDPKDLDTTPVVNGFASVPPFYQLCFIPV
T5 sequence (P08684 whole entry): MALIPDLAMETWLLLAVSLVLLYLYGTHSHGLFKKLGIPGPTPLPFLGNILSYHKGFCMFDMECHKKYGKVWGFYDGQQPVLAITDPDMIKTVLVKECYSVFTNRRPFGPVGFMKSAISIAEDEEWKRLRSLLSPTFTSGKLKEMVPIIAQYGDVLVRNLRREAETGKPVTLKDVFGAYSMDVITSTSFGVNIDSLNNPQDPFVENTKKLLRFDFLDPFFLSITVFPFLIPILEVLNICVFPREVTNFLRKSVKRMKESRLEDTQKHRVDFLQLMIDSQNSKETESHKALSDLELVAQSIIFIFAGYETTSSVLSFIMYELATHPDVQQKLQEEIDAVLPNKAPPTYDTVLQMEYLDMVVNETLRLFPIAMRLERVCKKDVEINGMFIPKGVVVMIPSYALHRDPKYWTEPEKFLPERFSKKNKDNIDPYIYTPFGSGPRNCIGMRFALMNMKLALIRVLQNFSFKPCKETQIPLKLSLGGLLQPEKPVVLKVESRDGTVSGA
T4 sequence (P10635 whole entry): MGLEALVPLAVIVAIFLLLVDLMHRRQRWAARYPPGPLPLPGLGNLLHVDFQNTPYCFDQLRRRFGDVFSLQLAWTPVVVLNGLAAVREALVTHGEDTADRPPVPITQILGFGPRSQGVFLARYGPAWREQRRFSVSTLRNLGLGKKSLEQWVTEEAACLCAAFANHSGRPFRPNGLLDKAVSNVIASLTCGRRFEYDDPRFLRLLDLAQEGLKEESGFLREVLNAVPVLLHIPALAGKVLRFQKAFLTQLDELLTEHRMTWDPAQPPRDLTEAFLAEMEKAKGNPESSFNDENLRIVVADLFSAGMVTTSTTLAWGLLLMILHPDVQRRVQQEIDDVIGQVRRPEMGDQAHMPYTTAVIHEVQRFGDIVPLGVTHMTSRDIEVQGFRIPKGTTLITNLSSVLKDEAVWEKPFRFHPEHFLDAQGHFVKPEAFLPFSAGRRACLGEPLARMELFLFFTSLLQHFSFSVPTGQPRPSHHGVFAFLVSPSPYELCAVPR
T3 sequence (P11712 whole entry): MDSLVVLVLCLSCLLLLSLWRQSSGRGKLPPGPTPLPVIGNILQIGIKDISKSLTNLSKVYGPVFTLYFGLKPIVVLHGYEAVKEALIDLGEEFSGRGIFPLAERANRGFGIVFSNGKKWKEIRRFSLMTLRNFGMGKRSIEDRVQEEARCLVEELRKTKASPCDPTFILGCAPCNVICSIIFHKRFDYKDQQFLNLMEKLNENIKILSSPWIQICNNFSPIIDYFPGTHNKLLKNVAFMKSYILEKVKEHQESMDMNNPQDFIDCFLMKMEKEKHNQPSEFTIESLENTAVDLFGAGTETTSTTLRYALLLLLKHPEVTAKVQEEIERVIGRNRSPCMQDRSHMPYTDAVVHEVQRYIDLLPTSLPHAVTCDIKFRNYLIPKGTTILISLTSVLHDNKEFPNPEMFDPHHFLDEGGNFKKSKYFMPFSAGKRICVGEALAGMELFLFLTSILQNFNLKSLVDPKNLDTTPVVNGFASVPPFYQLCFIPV

As to `O=C(O)[C@@H]1CCCN(S(=O)(=O)c2ccccc2C(F)(F)F)C1` [(R)-1-((2-(Trifluoromethyl)phenyl)sulfonyl)piperidine-3-carboxylic acid], the half-life in series [1] and in [2] was greater than 460 min in each case. Besides, the hepatocyte CLint in series [1] and in series [2] was less than 3 µL/min/1e6 cells each time. In [3], the fraction unbound (as a rule, free concentration divided by total concentration) at 4 h, 5 μM is 0.095. For the same compound, the IC50 at CYP 1A2, at CYP 2C19, at CYP 2C9, on CYP 2D6 and at CYP 3A4 was greater than 50 µM each time. Also, the “secretion of human Z A1AT into cell supernatant” value at human Z A1AT is “stimulates secretion of human Z A1AT in a dose dependent manner”.

For the compound `O=C(O)[C@H]1CCCN(S(=O)(=O)c2ccccc2C(F)(F)F)C1` [(S)-1-((2-(Trifluoromethyl)phenyl)sulfonyl)piperidine-3-carboxylic acid], the half-life in series [1] and in [2] was greater than 460 min each time. Further, the hepatocyte CLint in series [1] and in [2] was less than 3 µL/min/1e6 cells throughout. Also, in [3], the fraction unbound at 4 h, 5 μM is 0.085. Further, the IC50 on CYP 1A2, on CYP 2C19, on CYP 2C9, on CYP 2D6 and on CYP 3A4 was greater than 50 µM each time. Moreover, the “secretion of human Z A1AT into cell supernatant” value at human Z A1AT is “stimulates secretion of human Z A1AT in a dose dependent manner”.
